# According to patent US4897392A, “4H-indolo(1,2-d)(1,2,4)triazolo(4,3-A)(1,4)benzodiazepines” (Hoechst-Roussel Pharmaceuticals, Inc., priority 1989, dated 1990):
# System: mice
# Test: 2-phenyl-1,4-benzoquinone-induced writhing test in mice (Phenylquinone Writhing, PQW), analgesic activity
# Assay type: in vivo
# Source text: The compounds of Formula I of the present invention are useful as analgesic agents due to their ability to alleviate pain in mammals. […] Exptl. Biol. Med., 95, 729 (1957)].
SMILES,"Analgesic PQW, % Inhibition of Writhing at 20 mg/kg., s.c.","Analgesic PQW, % Inhibition of Writhing (reference compound, at 3.9 mg/kg, s.c.) (3.9 mg/kg)"
"Cc1nnc2n1-c1ccccc1-c1cc3ccccc3n1C2 [1-Methyl-4H-indolo[1,2-d][1,2,4]triazolo[4,3-a][1,4]benzodiazepine]",37%,
"Cc1nnc2n1-c1ccc(Cl)cc1-c1cc3ccccc3n1C2 [12-Chloro-1-methyl-4H-indolo[1,2-d][1,2,4]triazolo[4,3-a][1,4]benzodiazepin]",46%,
"Cc1nnc2n1-c1ccccc1-c1c(Cl)c3ccccc3n1C2 [10-Chloro-1-methyl-4H-indolo[1,2-d][1,2,4]triazolo[4,3-a][1,4]benzodiazepin]",51%,
"Cc1nnc2n1-c1ccc(Cl)cc1-c1c(Cl)c3ccccc3n1C2 [10,12-Dichloro-1-methyl-4H-indolo[1,2-d][1,2,4]triazolo[4,3-a][1,4]benzodiazepine]",32%,
"CCC(=O)O[C@](Cc1ccccc1)(c1ccccc1)[C@H](C)CN(C)C [Propoxyphene, reference compound]",,50%
